Data on one compound can be found in patent publication US11465972B2, “Inhibitors of oxidized low-density lipoprotein receptor 1 and methods of use thereof” (United States Government as represented by the Department …, priority 2015, dated 2022).

Each structure is given as a SMILES string. Values joined by “and” are separate entries in the source; they are usually repeats but may differ in a detail not shown here. Equal values may be shown once.

The nature of data set [1]: Liver microsomal stability, human. The conditions noted are these: human liver microsomes. The class given is in vitro ADME. On the procedure: (§1) Metabolic stability or clearance is recognized as one of the main determinants of drug concentration in blood. The metabolic stability of Mol-5 was tested using liver microsomes form mice and humans to obtain stability ranking and intrinsic clearance.

A short description of data set [2]: Liver microsomal stability, mouse. The conditions noted are these: mouse liver microsomes. Format: in vitro ADME. As to the method: as §1
For data set [3], the system named is ECs. As to the kind of experiment: Second dose response of ox-LDL uptake by ECs (lower concentrations). The class given is cell-based. Conditions: second dose response curve, estimated. As to the method: FIG. 6A depicts the IC50 for Mol-5. The x-axis represents Mol-5 concentration (nM) and the y-axis represents ox-LDL uptake by ECs. FIG. 6B depicts the ox-LDL uptake with Mol-5 inhibition.
For further characterization, human endothelial cells and fluorescently-labeled Dil-ox-LDL were used for measuring initiation of atherogenic process based on interaction of vascular wall with ox-LDL. Ox-LDL uptake by human umbilical vein endothelial cells (HUVECs) was measured after exposure to 200 nM of each compound using flow cytometry. […] The dose response to modulation of ox-LDL uptake by Mol-5 (0, 20, 200 and 2000 nM) was also measured in CHO cells overexpressing human LOX-1. […] A second dose response curve was conducted to narrow in on the effect of lower concentrations of Mol-5 on ox-LDL uptake (FIG. 6A). Using this information the EC50 was estimated to be […] (FIG. 6B).

Data set [4] concerns the target human LOX-1 (Homo sapiens, UniProt P78380). As to the kind of experiment: Dil-ox-LDL uptake in CHO cells overexpressing human LOX-1. Format: cell-based. Conditions: 0, 20, 200, 2000 nM, read-out: IC50, inhibition of Dil-ox-LDL uptake. As to the method: FIG. 3A, FIG. 3B, FIG. 3C and FIG. 3D depict the inhibitory effect of the lead compounds on Dil-ox-LDL uptake by HUVECs and CHO cells (measured by flow cytometry) and the effect of the lead compounds on ox-LDL-induced LOX-1 mRNA and protein expression. (FIG. 3A) (Upper Panel) Flow cytometry measurements using HUVECs in the presence of the five lead compounds (Mol-1-Mol-5), each a at 200 nM concentration. (Lower Panel) The percentage of internalized ox-LDL. Graphs show data as mean (±SD); n=4. *P<0.01 or <0.05 vs. control. (FIG. 3B) IC50 value for Mol-5. IC50 value (in nM) is based on inhibition of Dil-ox-LDL uptake in CHO cells overexpressing human LOX-1. Graphs show data as mean (±SD); n=5. *P<0.01 or <0.05 vs. control. (FIG. 3C) Western blotting assay showing LOX-1 protein expression in HUVECs following incubation with 200 nM Mol-1 to Mol-5 for 30 min, and subsequently exposure to 5 μg/mL ox-LDL for 6 hours. […]
For further characterization, human endothelial cells and fluorescently-labeled Dil-ox-LDL were used for measuring initiation of atherogenic process based on interaction of vascular wall with ox-LDL. Ox-LDL uptake by human umbilical vein endothelial cells (HUVECs) was measured after exposure to 200 nM of each compound using flow cytometry. […] The dose response to modulation of ox-LDL uptake by Mol-5 (0, 20, 200 and 2000 nM) was also measured in CHO cells overexpressing human LOX-1. […]

As to `Cc1cc(C)n(CC(O)COc2ccccc2)n1` (centres unmarked) [Mol-5, 1-(3,5-dimethyl-1H-pyrazol-1-yl)-3-phenoxypropan-2-ol], in data set [1], the half-life came out at 55.3 ± 2.2 min, the “metabolic stability (in words)” value is on record as “reasonable stability” and the microsomal CLint amounted to 25.1 ± 1 µL/min/mg. In data set [2], the half-life is 1.7 ± 0.1 min, the “metabolic stability (in words)” value is recorded as “low stability” and the microsomal CLint was determined as 836 ± 40.8 µL/min/mg. The EC50 in data set [3] was 0.064 µM. Further, the concentration for half-maximal inhibition (IC50) in data set [4] was ~0.2 µM and 0.2 µM.

One may read the half-life as the time needed for the level to fall by half in the phase considered. Read a low half-life as rapid decline. One may read the microsomal CLint as the rate of metabolic loss divided by the concentration. Low readings indicate slow turnover, high ones rapid turnover. For orientation: EC50 means the concentration that produces a half-maximal response. What is called IC50 is the concentration needed to halve the response being measured.
